# Counter-ions that a name gives are not always drawn. Where a SMILES comes first, the peptide text is derived from it. Bridges are numbered along the chain shown (N, C = ends). [ ]: non-standard residue; d: D form. hArg = N=C(N)NCCCC[C@H](N)C(=O)O; Mpa = O=C(O)CCS
# Test system: hDMFa myofibroblast cells
row,Structure (SMILES),Compound Myofibroblast Cytotoxicity Activity
1,"N=C(N)NCCCC[C@@H]1NC(=O)CCSSC[C@@H](C(N)=O)NC(=O)[C@@H]2CCCN2C(=O)[C@H](Cc2c[nH]c3ccccc23)NC(=O)[C@H](CC(=O)O)NC(=O)CNC1=O [Cmpd 424, Eptifibatide Acetate] ([Mpa][hArg]GDWPC-NH2; disulfide 1-7)",++
2,"COc1ccc2[n-]c([S+]([O-])Cc3ncc(C)c(OC)c3C)nc2c1.COc1ccc2[n-]c([S+]([O-])Cc3ncc(C)c(OC)c3C)nc2c1.[Mg+2] (stereo not drawn) [Cmpd 427, Esomeprazole Magnesium]",++
3,"COc1ccc2[n-]c([S@@+]([O-])Cc3ncc(C)c(OC)c3C)nc2c1.COc1ccc2[n-]c([S@@+]([O-])Cc3ncc(C)c(OC)c3C)nc2c1.O.O.O.[Mg+2] [Cmpd 428, Esomeprazole Magnesium trihydrate]",++
4,"C[C@]12CC[C@@H]3c4ccc(O)cc4CC[C@H]3[C@@H]1CC[C@@H]2OC(=O)CCC1CCCC1 [Cmpd 430, Estradiol Cypionate]",+++
5,"CCCCC(=O)O[C@H]1CC[C@H]2[C@@H]3CCc4cc(O)ccc4[C@H]3CC[C@]12C [Cmpd 431, Estradiol valerate]",+++
6,"C[C@]12CC[C@@H]3c4ccc(OS(=O)(=O)O)cc4CC[C@H]3[C@@H]1CCC2=O [Cmpd 432, Estropipate]",+++
7,"C=C(CC)C(=O)c1ccc(OCC(=O)O)c(Cl)c1Cl [Cmpd 434, Ethacrynic Acid]",+++
8,"CCC1(C)CC(=O)NC1=O (stereo not drawn) [Cmpd 436, Ethosuximide]",++
9,"CCOC(=O)C=Cc1ccccc1 [Cmpd 437, Ethyl Cinnamate]",++
10,"C#C[C@]1(OC(C)=O)CC[C@H]2[C@@H]3CCC4=C[C@@H](OC(C)=O)CC[C@@H]4[C@H]3CC[C@@]21C [Cmpd 439, Ethynodiol diacetate]",++
11,"CCOC(=O)/C=C(C)/C=C/C=C(C)/C=C/c1c(C)cc(OC)c(C)c1C [Cmpd 442, Etretinate]",+++
12,"Cc1cc(-c2ccc(/N=N/c3ccc4c(S(=O)(=O)[O-])cc(S(=O)(=O)[O-])c(N)c4c3O)c(C)c2)ccc1/N=N/c1ccc2c(S(=O)(=O)[O-])cc(S(=O)(=O)[O-])c(N)c2c1O.[Na+].[Na+].[Na+].[Na+] [Cmpd 445, Evans Blue tetrasodium salt]",++
13,"CO[C@H]1C[C@@H]2CC[C@@H](C)[C@@](O)(O2)C(=O)C(=O)N2CCCC[C@H]2C(=O)O[C@H]([C@H](C)C[C@@H]2CC[C@@H](OCCO)[C@H](OC)C2)CC(=O)[C@H](C)/C=C(\C)[C@@H](O)[C@@H](OC)C(=O)[C@H](C)C[C@H](C)/C=C/C=C/C=C/1C [Cmpd 446, Everolimus (RAD001)]",+++++
14,"CC(=O)OCC(CCn1cnc2cnc(N)nc21)COC(C)=O [Cmpd 447, Famciclovir]",+++
15,"CCOC(=O)C1=C(C)NC(C)=C(C(=O)OC)C1c1cccc(Cl)c1Cl (stereo not drawn) [Cmpd 449, Felodipine]",+++
16,"CC(NCCC(c1ccccc1)c1ccccc1)c1ccccc1 (stereo not drawn) [Cmpd 450, Fendiline (hydrochloride)]",+++
17,"Clc1ccc(C(Cn2ccnc2)OCc2ccc(Sc3ccccc3)cc2)c(Cl)c1 (stereo not drawn) [Cmpd 452, Fenticonazole Nitrate]",++++
18,"COc1cc(/C=C/C(=O)O)ccc1O [Cmpd 453, Ferulic Acid]",++
19,"CCc1c(Cl)c(O)c(Cl)c(O)c1C(=O)O[C@H]1[C@H](O)[C@H](OC)[C@H](OC/C2=C\C=C\C[C@H](O)/C(C)=C/[C@H](CC)[C@@H](O[C@@H]3OC(C)(C)[C@@H](OC(=O)C(C)C)[C@H](O)[C@@H]3O)/C(C)=C/C(C)=C/C[C@@H]([C@@H](C)O)OC2=O)O[C@@H]1C [Cmpd 454, Fidaxomicin]",+++++

row,Structure (SMILES),Compound Myofibroblast Cytotoxicity Activity
1,"CCC(=O)c1c(O)cc(O)cc1O [Cmpd 458, Flopropione]",++
2,"O=c1[nH]c(=O)n([C@H]2C[C@H](O)[C@@H](CO)O2)cc1F [Cmpd 459, Floxuridine]",+++
3,"Cl.Cl.Fc1ccc(C(c2ccc(F)cc2)N2CCN(C/C=C/c3ccccc3)CC2)cc1 [Cmpd 460, Flunarizine 2HCl]",++
4,"CC1(C)O[C@@H]2C[C@H]3[C@@H]4C[C@H](F)C5=CC(=O)C=C[C@]5(C)[C@H]4[C@@H](O)C[C@]3(C)[C@]2(C(=O)CO)O1 [Cmpd 461, Flunisolide]",++
5,"O=C1OC2(c3ccc(O)cc3Oc3cc(O)ccc32)c2ccccc21 [Cmpd 462, Fluorescein]",++
6,"CC(=O)[C@@]1(O)CC[C@H]2[C@@H]3C[C@H](C)C4=CC(=O)C=C[C@]4(C)[C@@]3(F)[C@@H](O)C[C@@]21C [Cmpd 463, Fluorometholone]",++
7,"CNCCC(Oc1ccc(C(F)(F)F)cc1)c1ccccc1 (stereo not drawn) [Cmpd 464, Fluoxetine HCl]",+++
8,"Cl.Cl.OCCN1CCN(CCCN2c3ccccc3Sc3ccc(C(F)(F)F)cc32)CC1 [Cmpd 465, Fluphenazine dihydrochloride]",+++++
9,"COCCCC/C(=N\OCCN)c1ccc(C(F)(F)F)cc1 [Cmpd 466, Fluvoxamine maleate]",++
10,"Nc1nc2ncc(CNc3ccc(C(=O)N[C@@H](CCC(=O)O)C(=O)O)cc3)nc2c(=O)[nH]1 [Cmpd 467, Folic acid]",++
11,"Nc1nc(=O)c2c([nH]1)NCC(CNc1ccc(C(=O)N[C@@H](CCC(=O)[O-])C(=O)[O-])cc1)N2C=O.[Ca+2] (stereo partly drawn) [Cmpd 468, Folinic Acid (calcium salt)]",+++
12,"CNC(=O)c1c(C)oc2cc(Oc3ncnc4cc(OC)c(OC)cc34)ccc12 [Cmpd 472, Fruquintinib(HMPL-013)]",++++
13,"N[C@@H](CSCCCO)C(=O)O [Cmpd 473, Fudosteine]",++++
14,"CC(=O)O[C@H]1C[C@@]2(C)[C@@H](C[C@@H](O)[C@H]3[C@@]4(C)CC[C@@H](O)[C@@H](C)[C@@H]4CC[C@@]32C)/C1=C(\CCC=C(C)C)C(=O)O [Cmpd 477, Fusidic Acid (sodium salt)]",+++
15,"CC(C)=C1C/C=C(\C)CC/C=C(\C)CC1=O [Cmpd 482, Germacrone]",+++++
16,"COc1ccc2c(c1)C(=O)N(CCc1ccc(S(=O)(=O)NC(=O)NC3CCCCC3)cc1)C(=O)C2(C)C [Cmpd 485, Gliquidone]",++
17,"NCC(=O)O [Cmpd 487, Glycine (GLY)]",++++
18,"C[C@H](CCC(=O)NCC(=O)O)[C@H]1CC[C@H]2[C@@H]3[C@H](O)C[C@@H]4C[C@H](O)CC[C@]4(C)[C@H]3C[C@H](O)[C@]12C [Cmpd 488, Glycocholic Acid]",++++
19,"NCC(=O)NCC(=O)O [Cmpd 489, Glycylglycine] (H-Gly-Gly-OH)",++

row,Structure (SMILES),Compound Myofibroblast Cytotoxicity Activity
1,"C[C@]1(OC(=O)/C=C/c2ccccc2)C[C@@H](O)[C@]2(O)C=CO[C@@H](O[C@@H]3O[C@H](CO)[C@@H](O)[C@H](O)[C@H]3O)[C@@H]21 [Cmpd 499, Harpagoside]",++
2,"COc1ccc([C@@H]2CC(=O)c3c(O)cc(O)cc3O2)cc1O [Cmpd 503, Hesperitin]",++
3,"Oc1c(Cl)cc(Cl)c(Cl)c1Cc1c(O)c(Cl)cc(Cl)c1Cl [Cmpd 504, Hexachlorophene]",+++++
4,"C[Si]1(C)O[Si](C)(C)O[Si](C)(C)O1 [Cmpd 505, Hexamethylcyclotrisiloxane]",+
5,"CC[C@H]1CN2CC[C@H]1C[C@@H]2[C@@H](O)c1ccnc2ccc(OC)cc12 [Cmpd 508, Hydroquinidine]",++
6,"Oc1ccc(O)cc1 [Cmpd 509, Hydroquinone]",++
7,"CC(=O)[C@]1(O)Cc2c(O)c3c(c(O)c2[C@@H](O[C@H]2C[C@H](N)[C@H](O)[C@H](C)O2)C1)C(=O)c1ccccc1C3=O [Cmpd 515, Idarubicin HCl]",+++++
8,"O=P1(NCCCl)OCCCN1CCCl (stereo not drawn) [Cmpd 518, Ifosfamide]",+++
9,"CN(C)CCCN1c2ccccc2CCc2ccccc21 [Cmpd 523, Imipramine (hydrochloride)]",+++
10,"CC1Cc2ccccc2N1NC(=O)c1ccc(Cl)c(S(N)(=O)=O)c1 (stereo not drawn) [Cmpd 527, Indapamide]",+++
11,"O=C1/C(=C2\Nc3ccc(S(=O)(=O)[O-])cc3C2=O)Nc2ccc(S(=O)(=O)[O-])cc21.[Na+].[Na+] [Cmpd 528, Indigo carmine]",++
12,"NC(=O)c1ccc(I)c([N+](=O)[O-])c1 [Cmpd 531, Iniparib (BSI-201)]",+++++
13,"Clc1ccc(C(Cn2ccnc2)OCc2c(Cl)cccc2Cl)c(Cl)c1 (stereo not drawn) [Cmpd 535, Isoconazole nitrate]",+++
14,"CC=Cc1ccc(O)c(OC)c1 [Cmpd 536, Isoeugenol]",++
15,"O=C(O)c1ccncc1 [Cmpd 537, Isonicotinic acid]",++++
16,"CC(=O)Nc1ccc(C(=O)O)cc1.CC(=O)Nc1ccc(C(=O)O)cc1.CC(=O)Nc1ccc(C(=O)O)cc1.CC(O)CN(C)C.CC(O)CN(C)C.CC(O)CN(C)C.O=c1[nH]cnc2c1ncn2[C@@H]1O[C@H](CO)[C@@H](O)[C@H]1O [Cmpd 538, Isoprinosine]",++
17,"CC(C)NCC(O)c1ccc(O)c(O)c1 (stereo not drawn) [Cmpd 539, Isoproterenol sulfate dihydrate]",++
18,"O=[N+]([O-])O[C@@H]1CO[C@H]2[C@@H]1OC[C@@H]2O [Cmpd 540, Isosorbide 5-mononitrate]",++
19,"CC(COc1ccccc1)NC(C)C(O)c1ccc(O)cc1 (stereo not drawn) [Cmpd 542, Isoxsuprine (hydrochloride)]",++

# Reference: patent US20260102359A1, “COMBINATION TREATMENT OF DERMAL AND TRANSDERMAL FIBROTIC DISEASES, DISORDERS AND ASSOCIATED PAIN AND INFLAMMATION” (ERESINA, LLC, priority 2022, published 2026)
